Tests used:
Assay type in all cases: biochemical
Hs_PIM1 = Hs_PIM1 (Homo sapiens, UniProt P11309); assay: primary screening, short panel of mammalian kinases; conditions: ATP 10 µM, means, n = 2, read-out: Residual kinase activity Hs_PIM1
Text: Our molecules have been submitted first to a primary screening against a panel of eight disease-related kinases: five members of the CMGC (for CDK, MAPK, GSK3, and CLK) group (CDK5/p25, CDK9/CyclinT, GSK3β, CLK1 and DYRK1A), one CAMK (calmodulin/calcium regulated kinase PIM1), one CK1 (the casein kinase CK1ε), and haspin as a […] kinase.
Figure 4 Primary evaluation of the inhibition of the new quinazolines against a short panel of mammalian kinases. Residual kinase activities are expressed in % of maximal activity, i.e., measured in the absence of inhibitor but with an equivalent dose of DMSO (solvent of the tested compounds). ATP concentration used in the kinase assays was 10 µM (values are means, n = 2). Kinases are from human origin (Homo sapiens) except CLK1 (from Mus musculus) and DYRK1A (from Rattus norvegicus). […]

Mm_CLK1 = Mm_CLK1 (Mus musculus, UniProt P22518); assay: radiometric γ33P-ATP kinase assay (Eurofins)
Mm_CLK1, sequence (P22518 whole entry): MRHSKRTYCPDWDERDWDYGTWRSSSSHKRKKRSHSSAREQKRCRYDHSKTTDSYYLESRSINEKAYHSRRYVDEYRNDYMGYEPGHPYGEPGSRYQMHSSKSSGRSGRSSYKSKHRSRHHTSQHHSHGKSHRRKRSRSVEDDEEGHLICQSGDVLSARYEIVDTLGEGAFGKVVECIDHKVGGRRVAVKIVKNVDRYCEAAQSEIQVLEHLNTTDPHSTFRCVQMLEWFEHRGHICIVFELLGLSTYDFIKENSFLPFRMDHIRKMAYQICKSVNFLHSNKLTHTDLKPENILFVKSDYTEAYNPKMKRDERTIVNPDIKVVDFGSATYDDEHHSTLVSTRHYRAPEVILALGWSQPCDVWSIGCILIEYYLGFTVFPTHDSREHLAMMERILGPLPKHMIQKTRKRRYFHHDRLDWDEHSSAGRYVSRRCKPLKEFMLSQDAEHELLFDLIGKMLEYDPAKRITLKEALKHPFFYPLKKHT
Description: (§1) The results are reported in Table 2 and in Supporting Information File 1.
(§2) 2- Kinase inhibition studies
(§3) Kinase enzymatic activities were assayed using both luminescent ADP detection assay
(§4) (ADP-GloTM assay kit, Promega, Madison, WI) or radiometric kinase assay. These
(§5) assays were performed using the protocols described in our previous publication. […]
(§6) 1.Brahmaiah, D.; Kanaka Durga Bhavani, A.; Aparna, P.; Sampath Kumar, N.; Solhi,
(§7) H.; Le Guevel, R.; Baratte, B.; Ruchaud, S.; Bach, S.; Singh Jadav, S.; Raji Reddy, C.;
(§8) Roisnel, T.; Mosset, P.; Levoin, N.; Grée, R. Bioorg.
(§9) R.; Baratte, B.; Robert, T.; Ruchaud, S.; Bach, S.; Jadav, S. S.; Reddy, C. […]

Mm_CLK2 = Mm_CLK2 (Mus musculus, UniProt O35491); assay: radiometric γ33P-ATP kinase assay (Eurofins)
Mm_CLK2, sequence (O35491 whole entry): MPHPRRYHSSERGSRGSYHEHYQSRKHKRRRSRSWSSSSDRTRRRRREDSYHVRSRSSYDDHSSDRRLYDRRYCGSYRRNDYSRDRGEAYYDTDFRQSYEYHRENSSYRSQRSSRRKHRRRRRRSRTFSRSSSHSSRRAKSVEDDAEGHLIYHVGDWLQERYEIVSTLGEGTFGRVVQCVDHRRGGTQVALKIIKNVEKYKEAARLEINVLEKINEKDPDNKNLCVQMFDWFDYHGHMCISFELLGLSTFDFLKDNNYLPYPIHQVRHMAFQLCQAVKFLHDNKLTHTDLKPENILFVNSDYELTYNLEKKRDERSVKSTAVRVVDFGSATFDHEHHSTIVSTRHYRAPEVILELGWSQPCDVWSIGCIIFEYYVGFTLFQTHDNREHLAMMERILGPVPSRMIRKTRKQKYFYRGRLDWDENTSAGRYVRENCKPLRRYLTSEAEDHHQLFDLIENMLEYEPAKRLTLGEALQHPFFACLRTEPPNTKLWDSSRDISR
Description: as §1, §2, §3, §4, §5, §6, §7, §8, §9

Mm_CLK4 = Mm_CLK4 (Mus musculus, UniProt O35493); assay: radiometric γ33P-ATP kinase assay (Eurofins)
Mm_CLK4, sequence (O35493 whole entry): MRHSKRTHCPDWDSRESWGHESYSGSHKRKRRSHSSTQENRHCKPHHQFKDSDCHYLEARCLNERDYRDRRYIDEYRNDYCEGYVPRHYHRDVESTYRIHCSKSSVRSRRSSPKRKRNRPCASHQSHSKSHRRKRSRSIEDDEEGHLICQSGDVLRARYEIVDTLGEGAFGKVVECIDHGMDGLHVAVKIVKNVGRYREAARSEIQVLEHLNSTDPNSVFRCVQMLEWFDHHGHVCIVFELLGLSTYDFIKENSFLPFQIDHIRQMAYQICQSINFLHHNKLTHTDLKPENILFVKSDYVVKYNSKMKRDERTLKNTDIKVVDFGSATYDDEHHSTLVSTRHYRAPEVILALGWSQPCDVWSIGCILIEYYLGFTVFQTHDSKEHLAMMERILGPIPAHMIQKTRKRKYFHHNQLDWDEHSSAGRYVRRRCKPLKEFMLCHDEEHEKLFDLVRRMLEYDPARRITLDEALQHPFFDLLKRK
Description: as §1, §2, §3, §4, §5, §6, §7, §8, §9

[1] = 15 µM ATP, dose-response, points in duplicate

Hs_PIM1, sequence (P11309 whole entry): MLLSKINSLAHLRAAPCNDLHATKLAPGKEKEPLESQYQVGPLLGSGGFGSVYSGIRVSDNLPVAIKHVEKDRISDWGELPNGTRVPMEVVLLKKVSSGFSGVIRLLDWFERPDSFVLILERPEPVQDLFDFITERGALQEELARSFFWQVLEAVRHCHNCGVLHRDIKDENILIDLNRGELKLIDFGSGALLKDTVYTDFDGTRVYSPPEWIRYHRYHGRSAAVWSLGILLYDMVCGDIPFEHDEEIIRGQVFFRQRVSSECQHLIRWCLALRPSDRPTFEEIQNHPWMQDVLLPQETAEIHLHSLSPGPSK

## Cc1ccc(-n2cc(COc3cccc4cnc(Nc5cc(Cl)cc(-c6cccc(C(=O)O)c6)c5)nc34)nn2)c([N+](=O)[O-])c1 [Compound 13b]
Hs_PIM1; compound 1 μM
  remaining activity at 1 µM: 88%
Hs_PIM1; compound 10 μM
  remaining activity at 10 µM: ≥ 100%
Mm_CLK1; [1]
  IC50: 0.127 µM
Mm_CLK1; ratio of IC50 values
  Mm_CLK3/Mm_CLK1: 2.38
Mm_CLK2; [1]
  IC50: 0.061 µM
Mm_CLK2; ratio of IC50 values
  Mm_CLK3/Mm_CLK2: 4.97
Mm_CLK4; [1]
  IC50: 0.062 µM
Mm_CLK4; ratio of IC50 values
  Mm_CLK3/Mm_CLK4: 4.89

— publication PMC12557437, “Research towards selective inhibition of the CLK3 kinase” (Beilstein Journal of Organic Chemistry, 2025)
